Source: patent US4839388A, “Prostacyclins and pharmaceuticals containing the same” (Mitsubishi Chemical Industries Limited, priority 1985, dated 1989)

Assays:
[1] = tested on: Human platelet aggregation; assay: Platelet aggregation inhibiting effect (human platelet rich plasma, ADP induced, in vitro); assay type: cell-based; details: 1 min, human PRP, ADP 2 to 10 μM, 37° C., one minute incubation, read-out: Platelet aggregation inhibiting ratio (IC50)
Experimental: Bloods were sampled from healthy male adults (22 to 34 years old) with no administration of drug for 2 weeks or more early in the morning when they were hungry. By use of an injector filled with a 3.8% sodium citrate solution, 50 ml of blood was sampled, immediately stirred by turning upside down and centrifuged at 200 G for 15 minutes. The supernatant was separated as the PRP (platelet rich plasma) and the residue was further subjected to centrifugation at 2000 G for 15 minutes, followed by recovery of the supernatant as PPP (poor platelet plasma) which ws provided for use in the experiment. 250 μl of PRP was placed in a cuvette, 5 μl of an 1% aqueous ethanol solution of the compound of the present invention or an 1% acqueous ethanol solution was added, and incubation was carried out at 37° C. for one minute. Then, an aggregation inducing agent (ADP) was added and the process of aggregation was recorded by Aggregometer (produced by Sienco Co.). As the concentration of ADP, the minimum concentrations of ADP (2 to 10 μM) to give the maximum aggregation for respective platelets were employed. The inhibition percentage of platelet aggregation was calculated by the following formula:
Inhibition percentage=(A-B/A)×100
A: Maximum aggregation ratio during addition of solvent ([…] aqueous ethanol solution)
B: Maximum aggregation ratio during addition of the compound of the present invention.
The platelet aggregation inhibiting effects of the compounds of the present invention are shown in terms of IC50 values in Table 1.

[2] = tested on: Rat secreted gastric acid; assay: Antiulcer effect: rat secreted gastric acid inhibiting effect (pylorus ligature); assay type: in vivo, Male wistar strain rats; details: 100 μg/kg, s.c., immediately after pylorus ligature; for Inhibition percentage: gastric acid vs. control group; for Amount of gastric acid secreted: gastric juice sampled after 4 hours, solvent 73.6 ± 4.3
Experimental: Male wistar strain rats (weighing 250-280 g) were fasted for 18 hours and subjected to peritoneotomy under ether anesthesia for ligature of pylorus, and after 4 hours under abstinence from food and water, gastric juice was sampled. The gastric juice was centrifuged at 3000 rpm for 10 minutes, and then the amount, pH and acidity of the gastric juice were measured. The acidity was measured by titration bymeans of an automatic titrating device (produced by Toa Denpa Kogyo) with a 0.1 N NaOH to pH 7.0 and calculated according to the following formula: [formula]
The gastric juice secretion inhibition percentage was calculated according to the following formula: [formula] A: Amount of gastric acid excreted in Control group B: Amount of gastric acid excreted in Drug group.
The drugs to be tested were administrated subcutaneously immediately after pylorus ligature.

SMILES	IC50 [1] [nM]	Inhibition percentage [2] [%]	Amount of gastric acid secreted [2] [mEq/l]
O=C(O)CCC/C=C1\C[C@H]2C[C@@H](O)[C@H](/C=C/[C@@H](O)C3CCCC3)[C@H]2C1 [OP-41483, reference compound]	12	–	–
O=C(O)CCC=CC1=C[C@H]2C[C@@H](O)[C@H](C#CC(O)C3CCCCC3)[C@H]2C1 (stereo partly shown) [drawing 46]	10	–	–
O=C(O)COCCC1=C[C@H]2C[C@@H](O)[C@H](C#CC(O)C3CCCCC3)[C@H]2C1 (stereo partly shown) [drawing 48]	4.5	–	–
O=C(O)CCC=CC1=C[C@H]2C[C@@H](O)[C@H](C#CC(O)C3CCCCC3)[C@H]2C1 (stereo partly shown) [drawing 50]	–	7.1	68.4 ± 10.1
O=C(O)COCCC1=C[C@H]2C[C@@H](O)[C@H](C#CC(O)C3CCCCC3)[C@H]2C1 (stereo partly shown) [drawing 52]	–	0	84.9 ± 10.8
